Measured values as given in BindingDB's records for doi:10.1016/j.ejmech.2014.07.015 (Tianjin University, 2014).
Residues, ends and D or L forms follow the SMILES beside them.

What follows are molecules tested against Angiotensin-converting enzyme (Homo sapiens, UniProt P12821) (assay: Inhibition of ACE (unknown origin)).
Chain of Angiotensin-converting enzyme (P12821 whole entry): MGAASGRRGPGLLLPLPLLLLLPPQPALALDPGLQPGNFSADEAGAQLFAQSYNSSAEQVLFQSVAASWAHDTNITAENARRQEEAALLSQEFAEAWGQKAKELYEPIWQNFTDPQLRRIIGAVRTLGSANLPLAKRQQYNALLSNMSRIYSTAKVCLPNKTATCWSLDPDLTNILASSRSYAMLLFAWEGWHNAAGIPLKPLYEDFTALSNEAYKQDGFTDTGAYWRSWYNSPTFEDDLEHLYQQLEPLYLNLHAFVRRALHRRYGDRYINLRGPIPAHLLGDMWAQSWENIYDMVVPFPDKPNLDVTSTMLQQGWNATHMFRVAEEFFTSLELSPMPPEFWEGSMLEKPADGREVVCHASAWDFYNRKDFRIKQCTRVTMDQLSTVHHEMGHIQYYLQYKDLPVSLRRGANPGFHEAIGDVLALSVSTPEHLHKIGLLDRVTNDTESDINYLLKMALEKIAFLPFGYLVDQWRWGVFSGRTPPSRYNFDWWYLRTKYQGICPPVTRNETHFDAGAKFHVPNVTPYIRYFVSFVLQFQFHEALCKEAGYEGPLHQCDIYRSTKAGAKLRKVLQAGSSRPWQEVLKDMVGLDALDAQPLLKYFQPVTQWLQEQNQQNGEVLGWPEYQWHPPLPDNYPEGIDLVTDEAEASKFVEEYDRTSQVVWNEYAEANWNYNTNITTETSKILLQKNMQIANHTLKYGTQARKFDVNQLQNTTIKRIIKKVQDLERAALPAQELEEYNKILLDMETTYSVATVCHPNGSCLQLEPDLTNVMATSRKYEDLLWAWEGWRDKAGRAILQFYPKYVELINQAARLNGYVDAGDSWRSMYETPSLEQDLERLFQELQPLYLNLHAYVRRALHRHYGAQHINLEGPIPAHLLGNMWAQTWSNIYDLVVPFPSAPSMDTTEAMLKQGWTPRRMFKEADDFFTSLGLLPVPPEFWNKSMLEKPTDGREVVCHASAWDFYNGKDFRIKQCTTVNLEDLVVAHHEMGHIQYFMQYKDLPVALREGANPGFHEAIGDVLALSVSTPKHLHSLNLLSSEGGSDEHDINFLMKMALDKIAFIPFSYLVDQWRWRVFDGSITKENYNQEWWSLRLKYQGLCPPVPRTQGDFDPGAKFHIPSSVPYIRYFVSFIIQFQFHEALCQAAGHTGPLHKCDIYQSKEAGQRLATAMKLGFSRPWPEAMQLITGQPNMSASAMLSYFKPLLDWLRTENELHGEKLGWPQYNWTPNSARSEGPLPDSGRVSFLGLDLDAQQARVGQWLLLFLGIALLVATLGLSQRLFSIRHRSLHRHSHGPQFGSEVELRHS
Work on `CC(C)C[C@H](N)C(=O)N[C@@H](Cc1ccc(O)cc1)C(=O)O` yielded an IC50 of 32.3 µM.
Work on `CC[C@H](C)[C@H](N)C(=O)N[C@@H](Cc1c[nH]c2ccccc12)C(=O)O` yielded an IC50 of 4.67 µM.
`N=C(N)NCCC[C@H](N)C(=O)N[C@@H](Cc1ccccc1)C(=O)O` gave an IC50 of 93.3 µM.
`CC(C)[C@H](NC(=O)[C@H](C)N)C(=O)NCC(=O)N1CCC[C@H]1C(=O)O` (H-AVGP-OH) was tested, and the IC50 was 3.09 µM.
`NC(N)=NCCC[C@H](N)C(=O)N1CCC[C@H]1C(=O)O` (H-Arg-Pro-OH) showed an IC50 of 20.8 µM.
`NC(N)=NCCC[C@H](N)C(=O)N[C@@H](Cc1c[nH]c2ccccc12)C(=O)O` (H-Arg-Trp-OH) gave an IC50 of 15.8 µM.
Work on `NC(=O)C[C@H](N)C(=O)N[C@@H](Cc1ccccc1)C(=O)O` (H-Asn-Phe-OH) yielded an IC50 of 46.7 µM.
`CC(C)C[C@H](NC(=O)[C@@H](N)CC(=O)O)C(=O)N1CCC[C@H]1C(=O)O` (H-Asp-Leu-Pro-OH) was tested, and the IC50 was 4.78 µM.
With `CC(C)[C@H](NC(=O)[C@@H](N)Cc1ccccc1)C(=O)N[C@@H](C)C(=O)N1CCC[C@H]1C(=O)O` (H-FVAP-OH) the IC50 was 10 µM.
With `C[C@H](NC(=O)[C@H](Cc1c[nH]c2ccccc12)NC(=O)CN)C(=O)N1CCC[C@H]1C(=O)O` (H-GWAP-OH) the IC50 was 3.89 µM.
With `N=C(N)NCCC[C@H](NC(=O)CN)C(=O)N1CCC[C@H]1C(=O)O` (H-Gly-Arg-Pro-OH) the IC50 was 19.9 µM.
Work on `CC[C@H](C)[C@H](N)C(=O)N[C@@H](CCC(=O)O)C(=O)N1CCC[C@H]1C(=O)O` (H-Ile-Glu-Pro-OH) yielded an IC50 of 1.58 µM.
With `CC[C@H](C)[C@H](N)C(=O)N[C@@H](CCCCN)C(=O)N1CCC[C@H]1C(=O)O` (H-Ile-Lys-Pro-OH) the IC50 was 6.91 µM.
Molecule `CC(C)C[C@H](N)C(=O)N[C@@H](C)C(=O)N1CCC[C@H]1C(=O)O` (H-Leu-Ala-Pro-OH) has an IC50 of 3.46 µM.
With `CC(C)C[C@H](N)C(=O)N[C@@H](CC(N)=O)C(=O)N1CCC[C@H]1C(=O)O` (H-Leu-Asn-Pro-OH) the IC50 was 57.5 µM.
`CC(C)C[C@H](N)C(=O)N[C@@H](CCC(=O)O)C(=O)N1CCC[C@H]1C(=O)O` (H-Leu-Glu-Pro-OH) was tested, and the IC50 was 1.9 µM.
`CC(C)C[C@H](N)C(=O)N[C@@H](CCCCN)C(=O)N1CCC[C@H]1C(=O)O` (H-Leu-Lys-Pro-OH) was tested, and the IC50 was 3.98 µM.
`CC(C)C[C@H](N)C(=O)N[C@@H](CO)C(=O)N1CCC[C@H]1C(=O)O` (H-Leu-Ser-Pro-OH) gave an IC50 of 1.69 µM.
`CC(C)C[C@H](N)C(=O)N[C@@H](Cc1ccc(O)cc1)C(=O)N1CCC[C@H]1C(=O)O` (H-Leu-Tyr-Pro-OH) showed an IC50 of 6.6 µM.
`CSCC[C@H](N)C(=O)N[C@@H](CC(N)=O)C(=O)N1CCC[C@H]1C(=O)O` (H-Met-Asn-Pro-OH) showed an IC50 of 66 µM.
Molecule `C[C@H](NC(=O)[C@@H](N)Cc1ccccc1)C(=O)N1CCC[C@H]1C(=O)O` (H-Phe-Ala-Pro-OH) has an IC50 of 3.8 µM.
For `NC(=O)CC[C@H](NC(=O)[C@@H](N)Cc1ccccc1)C(=O)N1CCC[C@H]1C(=O)O` (H-Phe-Gln-Pro-OH), the IC50 was 12 µM.
`N[C@@H](Cc1ccccc1)C(=O)N[C@@H](CCC(=O)O)C(=O)N1CCC[C@H]1C(=O)O` (H-Phe-Glu-Pro-OH) gave an IC50 of 12 µM.
For `CC(C)[C@H](N)C(=O)N[C@@H](CO)C(=O)N[C@@H](CO)C(=O)N1CCC[C@H]1C(=O)O` (H-VSSP-OH), the IC50 was 10 µM.
In the case of `CC(C)[C@H](N)C(=O)N[C@@H](CCCNC(=N)N)C(=O)N1CCC[C@H]1C(=O)O` (H-Val-Arg-Pro-OH), the IC50 is reported as 2.18 µM.
Work on `CC(C)[C@H](N)C(=O)NCC(=O)N1CCC[C@H]1C(=O)O` (H-Val-Gly-Pro-OH) yielded an IC50 of 26.3 µM.
`CSCC[C@H](NC(=O)[C@@H](N)C(C)C)C(=O)N1CCC[C@H]1C(=O)O` (H-Val-Met-Pro-OH) gave an IC50 of 28.8 µM.
Work on `CC(C)[C@H](N)C(=O)N[C@@H](CO)C(=O)N1CCC[C@H]1C(=O)O` (H-Val-Ser-Pro-OH) yielded an IC50 of 10 µM.
`C[C@H](N)C(=O)N[C@@H](Cc1ccccc1)C(=O)O` [2-(2-Amino-propionylamino)-3-phenyl-propionic acid] showed an IC50 of 75.8 µM.
`NCC(=O)N[C@@H](Cc1c[nH]c2ccccc12)C(=O)O` [2-((S)-2-Amino-acetylamino)-3-(1H-indol-3-yl)-propionic acid] (H-Gly-Trp-OH) gave an IC50 of 25.1 µM.
Molecule `CC[C@H](C)[C@H](N)C(=O)N[C@@H](Cc1ccc(O)cc1)C(=O)O` [(S)-2-((S)-2-Amino-3-(S)-methyl-pentanoylamino)-3-(4-hydroxy-phenyl)-propionic acid] (H-Ile-Tyr-OH) has an IC50 of 6.16 µM.
`CC(C)[C@H](N)C(=O)N[C@@H](Cc1ccccc1)C(=O)O` [(S)-2-((S)-2-Amino-3-methyl-butyrylamino)-3-phenyl-propionic acid] (H-Val-Phe-OH) gave an IC50 of 9.12 µM.
With `C[C@H](N)C(=O)N[C@@H](Cc1c[nH]c2ccccc12)C(=O)O` [(S)-2-((S)-2-Amino-propionylamino)-3-(1H-indol-3-yl)-propionic acid] (H-Ala-Trp-OH) the IC50 was 12 µM.
`C[C@H](N)C(=O)N[C@@H](Cc1ccc(O)cc1)C(=O)O` [(S)-2-((S)-2-Amino-propionylamino)-3-(4-hydroxy-phenyl)-propionic acid] (H-Ala-Tyr-OH) was tested, and the IC50 was 19 µM.
`CC(C)[C@H](N)C(=O)N[C@@H](Cc1ccc(O)cc1)C(=O)O` [Ang(3-4)] (H-Val-Tyr-OH) gave an IC50 of 15.8 µM.
`CC(C)C[C@H](N)C(=O)N[C@@H](CCC(N)=O)C(=O)N1CCC[C@H]1C(=O)O` [CHEBI:73270] (H-Leu-Gln-Pro-OH) showed an IC50 of 1.9 µM.
Work on `NC(=O)C[C@H](N)C(=O)N[C@@H](Cc1ccc(O)cc1)C(=O)O` [CHEBI:73427] (H-Asn-Tyr-OH) yielded an IC50 of 32.3 µM.
`N[C@@H](CC(=O)O)C(=O)N[C@@H](Cc1ccc(O)cc1)C(=O)O` [CHEBI:73455] (H-Asp-Tyr-OH) gave an IC50 of 100 µM.
Molecule `CC(C)C[C@H](N)C(=O)N[C@@H](Cc1c[nH]c2ccccc12)C(=O)O` [CHEBI:73590] has an IC50 of 17.3 µM.
Molecule `NCCCC[C@H](N)C(=O)N[C@@H](Cc1ccccc1)C(=O)O` [CHEBI:73605] has an IC50 of 28.1 µM.
`N[C@@H](Cc1ccccc1)C(=O)N[C@@H](Cc1ccc(O)cc1)C(=O)O` [CHEBI:73637] (H-Phe-Tyr-OH) was tested, and the IC50 was 25.1 µM.
Work on `N[C@@H](CO)C(=O)N[C@@H](Cc1ccc(O)cc1)C(=O)O` [CHEBI:73652] (H-Ser-Tyr-OH) yielded an IC50 of 66 µM.
Work on `N=C(N)NCCC[C@H](N)C(=O)N[C@@H](Cc1ccc(O)cc1)C(=O)O` [CHEBI:73822] (H-Arg-Tyr-OH) yielded an IC50 of 51.2 µM.
`N[C@@H](Cc1c[nH]cn1)C(=O)N[C@@H](Cc1ccc(O)cc1)C(=O)O` [CHEBI:74059] (H-His-Tyr-OH) showed an IC50 of 26.3 µM.
In the case of `NCCCC[C@H](N)C(=O)N1CCC[C@H]1C(=O)O` [CHEBI:74567] (H-Lys-Pro-OH), the IC50 is reported as 21.8 µM.
`CSCC[C@H](N)C(=O)N[C@@H](Cc1ccccc1)C(=O)O` [CHEBI:74708] (H-Met-Phe-OH) showed an IC50 of 44.6 µM.
With `CSCC[C@H](N)C(=O)N[C@@H](Cc1c[nH]c2ccccc12)C(=O)O` [CHEBI:74709] (H-Met-Trp-OH) the IC50 was 10 µM.
`C[C@@H](O)[C@H](N)C(=O)N[C@@H](Cc1ccccc1)C(=O)O` [CHEBI:74862] (H-Thr-Phe-OH) was tested, and the IC50 was 89.1 µM.
`CC[C@H](C)[C@H](N)C(=O)N[C@@H](C)C(=O)N1CCC[C@H]1C(=O)O` [Ile-Ala-Pro] (H-Ile-Ala-Pro-OH) showed an IC50 of 2.69 µM.
In the case of H-AVPYP-OH, the IC50 is reported as 79.4 µM.
H-DYGLYP-OH gave an IC50 of 61.6 µM.
H-FFVAP-OH showed an IC50 of 6.02 µM.
In the case of H-IAYKP-OH, the IC50 is reported as 2.18 µM.
For H-LAYFYP-OH, the IC50 was 64.5 µM.
H-LHLPAP-OH was tested, and the IC50 was 6.02 µM.
Work on H-LHLPGP-OH yielded an IC50 of 1.9 µM.
For H-LHLPLP-OH, the IC50 was 3.71 µM.
H-LHLPYP-OH showed an IC50 of 2.29 µM.
Molecule H-LHLWLP-OH has an IC50 of 8.91 µM.
With H-LHLYLP-OH the IC50 was 19 µM.
With H-RPQIPP-OH the IC50 was 45.7 µM.
H-SKVPP-OH showed an IC50 of 74.1 µM.
H-VHLAP-OH was tested, and the IC50 was 4.46 µM.
H-VHLPP-OH gave an IC50 of 18.1 µM.
For H-VLPIP-OH, the IC50 was 30.9 µM.
H-VLPYP-OH was tested, and the IC50 was 36.3 µM.
